In patent US7790742B2, “Substituted 4-phenyltetrahydroisoquinolines, pharmaceutical compositions thereof, methods for their preparation and therapeutic use” (Sanofi-Aventis Deutschland GmbH, priority 2004, dated 2010):

test system: not given; experiment: not given; conditions: not given

Row | Structure (SMILES) | melting point [°C]
1 | CN1Cc2c(Cl)cc(Cl)cc2C(c2ccccc2Nc2c(NC3CCCC3)c(=O)c2=O)C1 (centres unmarked) [Example 47, 6,8-dichloro-2-methyl-4-[2N-(2-N-cyclopentylamino-3,4-dioxocyclobuten-1-yl)amino]phenyl-1,2,3,4-tetrahydroisoquinoline] | 278 to 281
2 | CCNc1c(Nc2ccccc2C2CN(C)Cc3c(Cl)cc(Cl)cc32)c(=O)c1=O (centres unmarked) [Example 49, 6,8-dichloro-2-methyl-4-[2N-(2-N-ethylamino-3,4-dioxocyclobuten-1-yl)amino]phenyl-1,2,3,4-tetrahydroisoquinoline] | 205 to 208
3 | CN1Cc2c(Cl)cc(Cl)cc2[C@H](c2ccccc2Nc2c(N(C)C)c(=O)c2=O)C1 [Example 21, 6,8-dichloro-2-methyl-4(R)-[2N-(2-dimethylamino-3,4-dioxocyclobuten-1-yl)amino]phenyl-1,2,3,4-tetrahydroisoquinoline] | 236 to 240
4 | CCCCCCNc1c(Nc2ccccc2C2CN(C)Cc3c(Cl)cc(Cl)cc32)c(=O)c1=O (centres unmarked) [Example 45, 6,8-dichloro-2-methyl-4-[2N-(2-N-(1-hexylamino)-3,4-dioxocyclobuten-1-yl)amino]phenyl-1,2,3,4-tetrahydroisoquinoline] | 157 to 160
5 | CN1Cc2c(Cl)cc(Cl)cc2C(c2ccccc2Nc2c(NCc3ccco3)c(=O)c2=O)C1 (centres unmarked) [Example 48, 6,8-dichloro-2-methyl-4-[2N-(2N-(2-furylmethyl)amino-3,4-dioxocyclobuten-1-yl)amino]phenyl-1,2,3,4-tetrahydroisoquinoline] | 279 to 283
6 | CN(C)CCNc1c(Nc2ccccc2C2CN(C)Cc3c(Cl)cc(Cl)cc32)c(=O)c1=O (centres unmarked) [Example 50, 6,8-dichloro-2-methyl-4-[2N-(2-N-dimethylaminoethylamino-3,4-dioxocyclobuten-1-yl)amino]phenyl-1,2,3,4-tetrahydroisoquinoline] | 208 to 211
7 | CN1Cc2c(Cl)cc(Cl)cc2C(c2cccc(Nc3c(NC4CCCC4)c(=O)c3=O)c2)C1 (centres unmarked) [Example 63, 6,8-dichloro-2-methyl-4-[3N-(2-cyclopentylamino-3,4-dioxocyclobuten-1-yl)amino]phenyl-1,2,3,4-tetrahydroisoquinoline] | 248 to 252
8 | CN1Cc2c(Cl)cc(Cl)cc2C(c2ccc(Nc3c(N(C)C4CCCCC4)c(=O)c3=O)cc2)C1 (centres unmarked) [Example 17, 6,8-dichloro-2-methyl-4-[4N-(2-N-cyclohexyl-N-methylamino-3,4-dioxocyclobuten-1-yl)amino]phenyl-1,2,3,4-tetrahydroisoquinoline] | 260 to 265
9 | CN(C)CCNc1c(Nc2cccc(C3CN(C)Cc4c(Cl)cc(Cl)cc43)c2)c(=O)c1=O (centres unmarked) [Example 65] | 198 to 200
10 | CC(C)Nc1c(Nc2ccccc2C2CN(C)Cc3c(Cl)cc(Cl)cc32)c(=O)c1=O (centres unmarked) [Example 46, 6,8-dichloro-2-methyl-4-[2N-(2-N-isopropylamino-3,4-dioxocyclobuten-1-yl)amino]phenyl-1,2,3,4-tetrahydroisoquinoline] | 238 to 241
11 | CC(C)Nc1c(Nc2cccc(C3CN(C)Cc4c(Cl)cc(Cl)cc43)c2)c(=O)c1=O (centres unmarked) [Example 64] | 240 to 244
12 | CNc1c(Nc2ccccc2C2CN(C)Cc3c(Cl)cc(Cl)cc32)c(=O)c1=O (centres unmarked) [Example 44, 6,8-dichloro-2-methyl-4-[2N-(2-N-methylamino-3,4-dioxocyclobuten-1-yl)amino]phenyl-1,2,3,4-tetrahydroisoquinoline] | 224 to 230
13 | CN1Cc2c(Cl)cc(Cl)cc2C(c2ccccc2Nc2c(NCc3cccnc3)c(=O)c2=O)C1 (centres unmarked) [Example 52, 6,8-dichloro-2-methyl-4-[2N-(2N-(3-picolylmethyl)amino-3,4-dioxocyclobuten-1-yl)amino]phenyl-1,2,3,4-tetrahydroisoquinoline] | 244 to 246

Continued, values first:

Row | melting point [°C] | Structure (SMILES)
14 | 240 to 247 | CN1Cc2c(Cl)cc(Cl)cc2[C@H](c2ccc(Nc3c(N(C)C)c(=O)c3=O)cc2)C1 [Example 20, 6,8-dichloro-2-methyl-4(S)-[4N-(2-dimethylamino-3,4-dioxocyclobuten-1-yl)amino]phenyl-1,2,3,4-tetrahydroisoquinoline]
15 | 328 to 334 | CNc1c(Nc2ccc(C3CN(C)Cc4c(Cl)cc(Cl)cc43)cc2)c(=O)c1=O (centres unmarked) [Example 53, 6,8-dichloro-2-methyl-4-[4N-(2N-methylamino-3,4-dioxocyclobuten-1-yl)amino]phenyl-1,2,3,4-tetrahydroisoquinoline]
16 | 234 to 238 | CCCCCCNc1c(Nc2ccc(C3CN(C)Cc4c(Cl)cc(Cl)cc43)cc2)c(=O)c1=O (centres unmarked) [Example 58]
17 | 262 to 266 | CN(C)CCNc1c(Nc2ccc(C3CN(C)Cc4c(Cl)cc(Cl)cc43)cc2)c(=O)c1=O (centres unmarked) [Example 57]
18 | 300 to 304 | CN1Cc2c(Cl)cc(Cl)cc2C(c2ccc(Nc3c(NC4CCCC4)c(=O)c3=O)cc2)C1 (centres unmarked) [Example 54]
19 | 268 to 272 | CC(C)Nc1c(Nc2ccc(C3CN(C)Cc4c(Cl)cc(Cl)cc43)cc2)c(=O)c1=O (centres unmarked) [Example 55, 6,8-dichloro-2-methyl-4-[4N-(2N-isopropylamino-3,4-dioxocyclobuten-1-yl)amino]phenyl-1,2,3,4-tetrahydroisoquinoline]
20 | 295 to 298 | CNc1c(Nc2cccc(C3CN(C)Cc4c(Cl)cc(Cl)cc43)c2)c(=O)c1=O (centres unmarked) [Example 60]
21 | 292 to 297 | CCNc1c(Nc2ccc(C3CN(C)Cc4c(Cl)cc(Cl)cc43)cc2)c(=O)c1=O (centres unmarked) [Example 51, 6,8-dichloro-2-methyl-4-[4N-(2-N-ethylamino-3,4-dioxocyclobuten-1-yl)amino]phenyl-1,2,3,4-tetrahydroisoquinoline]
22 | 288 to 290 | CN1Cc2c(Cl)cc(Cl)cc2C(c2ccc(Nc3c(NCc4cccnc4)c(=O)c3=O)cc2)C1 (centres unmarked) [Example 59]
23 | 280 to 285 | CN1Cc2c(Cl)cc(Cl)cc2[C@H](c2ccc(Nc3c(NC4CC4)c(=O)c3=O)cc2)C1 [Example 35]
24 | 288 to 294 | CN1Cc2c(Cl)cc(Cl)cc2C(c2ccc(Nc3c(Nc4ccccc4)c(=O)c3=O)cc2)C1 (centres unmarked) [Example 43, 6,8-dichloro-2-methyl-4-[4N-(2-N-phenylamino-3,4-dioxocyclobuten-1-yl)amino]phenyl-1,2,3,4-tetrahydroisoquinoline]
25 | 264 to 268 | CN1Cc2c(Cl)cc(Cl)cc2C(c2ccc(Nc3c(NCc4ccco4)c(=O)c3=O)cc2)C1 (centres unmarked) [Example 56, 6,8-dichloro-2-methyl-4-[4N-(2N-(2-furylmethyl)amino-3,4-dioxocyclobuten-1-yl)amino]phenyl-1,2,3,4-tetrahydroisoquinoline]

target: T1, NHE3 (Homo sapiens, UniProt P48764); experiment: Determination of the NHE-inhibitory effect (recovery of intracellular pH after acidification, BCECF); assay type: cell-based; conditions: BCECF fluorescence, NHE subtype not given
T1 construct: host or cells: cells, not specified
T1 sequence (P48764 26-834): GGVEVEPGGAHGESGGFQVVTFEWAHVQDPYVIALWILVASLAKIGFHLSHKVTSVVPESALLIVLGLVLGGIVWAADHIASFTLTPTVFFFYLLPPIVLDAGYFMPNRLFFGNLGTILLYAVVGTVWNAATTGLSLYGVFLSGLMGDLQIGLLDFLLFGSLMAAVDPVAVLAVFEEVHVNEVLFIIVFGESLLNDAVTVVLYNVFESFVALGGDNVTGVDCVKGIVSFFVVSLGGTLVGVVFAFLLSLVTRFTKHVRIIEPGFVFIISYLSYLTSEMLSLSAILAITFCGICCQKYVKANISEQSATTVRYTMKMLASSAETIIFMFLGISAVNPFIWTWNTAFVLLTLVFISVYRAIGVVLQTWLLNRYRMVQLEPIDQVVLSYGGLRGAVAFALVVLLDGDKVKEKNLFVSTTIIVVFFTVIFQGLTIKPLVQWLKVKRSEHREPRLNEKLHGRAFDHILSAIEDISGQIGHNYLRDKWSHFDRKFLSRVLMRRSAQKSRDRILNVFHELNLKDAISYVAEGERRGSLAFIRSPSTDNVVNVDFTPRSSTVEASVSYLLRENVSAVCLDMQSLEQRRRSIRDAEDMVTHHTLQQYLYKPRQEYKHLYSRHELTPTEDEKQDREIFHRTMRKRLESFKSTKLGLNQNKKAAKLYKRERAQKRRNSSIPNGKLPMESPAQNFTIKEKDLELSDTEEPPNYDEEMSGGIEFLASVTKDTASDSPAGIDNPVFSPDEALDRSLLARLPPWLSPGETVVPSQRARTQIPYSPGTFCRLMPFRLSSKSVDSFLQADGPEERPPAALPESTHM
Description: [drawing 82] was obtained in analogy to the method indicated in Example 16 from 6,8-dichloro-2-methyl-4(R)-[2N-(2-ethoxy-3,4-dioxocyclobuten-1-yl)amino]-phenyl-1,2,3,4-tetrahydroisoquinoline (Example 6) and methylamine. Crystalline solid, m.p. 265° C. Pharmacological Data: Assay: Determination of the NHE-Inhibitory Effect
In this assay, the recovery of the intracellular pH (pHj) after an acidification which occurs even under bicarbonate-free conditions with functional NHE was determined. To this end, the pHj was determined using the pH-sensitive fluorescent dye BCECF (calbiochem, the precursor BCECF-AM was employed). The cells were initially loaded with BCECF. The BCECF fluorescence was determined in a ratio fluorescence spectrometer (Photon Technology International, South Brunswick, N.J., USA) with excitation wavelengths of 505 and 440 nm and an emission wavelength of 535 nm and converted into the pHj using calibration plots. The cells had been incubated in NH4Cl buffer (pH 7.4) for the BCECF loading (NH4Cl buffer: 115 mM NaCl, 20 mM NH4Cl, 5 mM KCl, 1 mM CaCl2, 1 mM MgSO4, 20 mM Hepes, 5 mM glucose, 1 mg/ml BSA; a pH of 7.4 was adjusted with 1 M NaOH). The intracellular acidification was induced by adding 975 μl of an NH4Cl-free buffer (see below) to 25 μl aliquots of the cells incubated in NH4Cl buffer. The subsequent rate of pH recovery was recorded for two minutes with NHE1, five minutes with NHE2 and three minutes with NHE3. To calculate the inhibitory power of the tested substances, the cells were initially investigated in buffers with which there was complete or absolutely no pH recovery. For complete pH recovery (100%), the cells were incubated in Na^+-containing buffer (133.8 mM NaCl, 4.7 mM KCl, 1.25 mM CaCl2, 1.25 mM MgCl2, 0.97 mM Na2HPO4, 0.23 mM NaH2PO4, 5 mM Hepes, 5 mM glucose, a pH of 7.0 was adjusted with 1 M NaOH). To determine the 0% value, the cells were incubated in an Na^+-free buffer (133.8 mM choline chloride, 4.7 mM KCl, 1.25 mM CaCl2, 1.25 mM MgCl2, 0.97 mM K2HPO4, 0.23 mM KH2PO4, 5 mM Hepes, 5 mM glucose, a pH of 7.0 was adjusted with 1 M NaOH). The substances to be tested were made up in the Na^+-containing buffer. The recovery of the intracellular pH at each tested concentration of a substance was expressed as a percentage of the maximum recovery. The IC50 of the respective substance for the individual NHE subtypes was calculated from the percentages of pH recovery using the Sigma Plot program.

Row | IC50 [nM] | Structure (SMILES)
26 | 98.5 | CN1Cc2c(Cl)cc(Cl)cc2[C@H](c2cccc(Nc3c(N(C)C)c(=O)c3=O)c2)C1 [Example 22, 6,8-dichloro-2-methyl-4(S)-[3N-(2-dimethylamino-3,4-dioxocyclobuten-1-yl)amino]phenyl-1,2,3,4-tetrahydroisoquinoline]
